Data from patent publication US9212151B2, “Heterocyclic compounds useful for kinase inhibition” (Amitech Therapeutic Solutions, Inc., priority 2010, dated 2015).

Key:
Tumor cells (A549) = assay: MTT cell viability assay, compounds at 5, 1 and 0.2 μM, 48 hours; type: cell-based
Summary of the method: (§1)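 A549 cells were seeded at 2500/well in DMEM + 10% FBS, grown overnight, then exposed to compound for 48 h. Viability was read by MTT (5 mg/ml, 4 h), with formazan dissolved in DMSO and absorbance measured at 560/570 nm to give survival rate.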

[1] = as above; type: cell-based; conditions: human, A549 tumor cells
Summary of the method: as §1

SMILES | viability at 48 h, 0.2 µM ([1]; 0.2 μM) [%] | viability at 48 h, 1 µM ([1]; 1 μM) [%] | viability at 48 h, 5 µM ([1]; 5 μM) [%] | further results
Cc1cc(Oc2cccc(-c3nnc(Nc4cccc(C(F)(F)F)c4)[nH]3)c2)nc(N)n1 [Compound 95] | – | – | – | % Viability A549 (Tumor cells (A549); 0.2 μM): +++ (+++: >70%); % Viability A549 (Tumor cells (A549); 1 μM): +++ (+++: >70%); % Viability A549 (Tumor cells (A549); 5 μM): ++ (++: 50-70%)
Nc1nc(OCC2CC2)cc(Oc2ccc(-c3nnc(Nc4cccc(C(F)(F)F)c4)[nH]3)cc2)n1 [Compound 84] | > 70 | > 70 | > 70 | –
FC(F)(F)c1cccc(Nc2nnc(-c3ccc(Oc4ccncc4)cc3Cl)[nH]2)c1 [Compound 111] | > 70 | > 70 | > 70 | –
NS(=O)(=O)c1cnccc1Oc1cccc(-c2nnc(Nc3cccc(C(F)(F)F)c3)o2)c1 [Compound 39] | > 70 | > 70 | > 70 | –
CSc1nc(N)cc(Oc2ccc(-c3nnc(Nc4cccc(OC(C)C)c4)[nH]3)cc2)n1 [Compound 134] | > 70 | > 70 | < 50 | –
COc1cc(Oc2cccc(-c3nnc(Nc4cccc(C(F)(F)F)c4)[nH]3)c2)ncn1 [Compound 93] | > 70 | > 70 | 50 to 70 | –
CSc1nc(N)cc(Oc2ccc(-c3nnc(Nc4ccc(F)c(C(F)(F)F)c4)[nH]3)cc2)n1 [Compound 105] | > 70 | > 70 | < 50 | –
FC(F)(F)c1cccc(Nc2nnc(-c3ccc(Oc4ccncc4)c(Cl)c3)[nH]2)c1 [Compound 103] | > 70 | > 70 | 50 to 70 | –
FC(F)(F)c1cccc(Nc2nnc(-c3cccc(Oc4cncc5ccccc45)c3)[nH]2)c1 [Compound 164] | > 70 | > 70 | 50 to 70 | –
FC(F)(F)c1cccc(Nc2nnc(-c3cccc(Oc4ccncc4C(F)(F)F)c3)o2)c1 [Compound 40] | > 70 | > 70 | > 70 | –
FC(F)(F)c1cccc(Nc2nnc(-c3ccc(Oc4ncnc5[nH]ccc45)cc3)[nH]2)c1 [Compound 10] | > 70 | > 70 | 50 to 70 | –
CCOc1cc(Oc2cccc(-c3nnc(Nc4cccc(C(F)(F)F)c4)[nH]3)c2)nc(N)n1 [Compound 57] | > 70 | > 70 | > 70 | –
CN(C)c1cc(Oc2ccc(-c3nnc(Nc4cccc(C(F)(F)F)c4)[nH]3)cc2)c2ccccc2n1 [Compound 190] | > 70 | > 70 | 50 to 70 | –
CCc1cc(Oc2ccc(-c3nnc(Nc4cccc(C(F)(F)F)c4)[nH]3)cc2)nc(N)n1 [Compound 77] | > 70 | 50 to 70 | 50 to 70 | –
CC(C)(C)Sc1nc(N)cc(Oc2ccc(-c3nnc(Nc4cccc(C(F)(F)F)c4)[nH]3)cc2)n1 [Compound 80] | > 70 | 50 to 70 | < 50 | –
COc1ccc2c(Oc3ccc(-c4nnc(Nc5cccc(C(F)(F)F)c5)o4)cc3)ccnc2c1 [Compound 33] | > 70 | > 70 | > 70 | –
COc1cc(-c2nnc(Nc3cccc(C(F)(F)F)c3)[nH]2)ccc1Oc1ccncc1 [Compound 108] | > 70 | > 70 | < 50 | –
COCCOc1cc(Oc2ccc(-c3nnc(Nc4cccc(C(F)(F)F)c4)[nH]3)cc2)nc(N)n1 [Compound 53] | > 70 | > 70 | < 50 | –
CC(C)(C)Sc1cc(Oc2cccc(-c3nnc(Nc4cccc(C(F)(F)F)c4)[nH]3)c2)nc(N)n1 [Compound 151] | > 70 | > 70 | > 70 | –

SMILES | viability at 48 h, 0.2 µM ([1]; 0.2 μM) [%] | viability at 48 h, 1 µM ([1]; 1 μM) [%] | viability at 48 h, 5 µM ([1]; 5 μM) [%] | further results
CS(=O)(=O)c1nc(N)cc(Oc2ccc(-c3nnc(Nc4cccc(C(F)(F)F)c4)[nH]3)cc2)n1 [Compound 64] | > 70 | > 70 | > 70 | –
Nc1nccc(Oc2ccc(-c3nnc(Nc4cccc(C(F)(F)F)c4)o3)cc2)n1 [Compound 27] | > 70 | > 70 | 50 to 70 | –
FC(F)(F)c1cccc(Nc2nnc(-c3ccc(Oc4ncnc5[nH]ccc45)cc3)s2)c1 [Compound 45] | > 70 | 50 to 70 | < 50 | –
CCCNc1cc(Oc2ccc(-c3nnc(Nc4cccc(C(F)(F)F)c4)[nH]3)cc2)nc(SC)n1 [Compound 144] | > 70 | > 70 | 50 to 70 | –
CNC(=O)CSc1nc(N)cc(Oc2ccc(-c3nnc(Nc4cccc(C(F)(F)F)c4)[nH]3)cc2)n1 [Compound 117] | > 70 | > 70 | > 70 | –
Nc1cc(Oc2cccc(-c3nnc(Nc4cccc(C(F)(F)F)c4)o3)c2)nc(N)n1 [Compound 35] | > 70 | > 70 | > 70 | –
CSc1nc(N)cc(Oc2ccc(-c3nnc(Nc4cc(C(F)(F)F)cc(C(F)(F)F)c4)[nH]3)cc2)n1 [Compound 120] | > 70 | > 70 | > 70 | –
CSc1nc(N)cc(Oc2ccc(-c3nnc(Nc4ccc(Cl)c(C(F)(F)F)c4)[nH]3)cc2)n1 [Compound 66] | > 70 | > 70 | < 50 | –
CSc1nc(Oc2cccc(-c3nnc(Nc4cccc(C(F)(F)F)c4)[nH]3)c2)c2cc[nH]c2n1 [Compound 56] | > 70 | > 70 | > 70 | –
FC(F)(F)Oc1ccc2c(Oc3ccc(-c4nnc(Nc5cccc(C(F)(F)F)c5)[nH]4)cc3)ccnc2c1 [Compound 163] | > 70 | > 70 | > 70 | –
COc1cc(Oc2ccc(-c3nnc(Nc4cccc(C(F)(F)F)c4)[nH]3)cc2)ncn1 [Compound 76] | > 70 | > 70 | 50 to 70 | –
COc1ccc2c(Oc3cc(-c4nnc(Nc5cccc(C(F)(F)F)c5)[nH]4)ccc3C)ccnc2c1 [Compound 197] | – | – | – | viability at 48 h, 0.2 µM ([1]; 0.2 μM compound): > 70%; viability at 48 h, 1 µM ([1]; 1 μM compound): > 70%; viability at 48 h, 5 µM ([1]; 5 μM compound): > 70%
Nc1cc(Oc2cccc(-c3nnc(Nc4cccc(C(F)(F)F)c4)o3)c2)ccn1 [Compound 38] | > 70 | > 70 | > 70 | –
CN(C)c1cc(Oc2ccc(-c3nnc(Nc4cccc(C(F)(F)F)c4)[nH]3)cc2)c2ccccc2n1 [Compound 196] | – | – | – | viability at 48 h, 0.2 µM ([1]; 0.2 μM compound): > 70%; viability at 48 h, 1 µM ([1]; 1 μM compound): > 70%; viability at 48 h, 5 µM ([1]; 5 μM compound): 50 to 70%
CSc1nc(N)cc(Oc2ccc(-c3nnc(Nc4cccc(C(F)(F)F)c4)s3)cc2)n1 [Compound 44] | > 70 | > 70 | > 70 | –
FC(F)(F)c1cccc(Nc2nnc(-c3ccc(Oc4ccnc5ccccc45)cc3)s2)c1 [Compound 47] | > 70 | > 70 | > 70 | –
COc1ccc2c(Oc3ccc(Nc4nnc(-c5cccc(C(F)(F)F)c5)[nH]4)cc3)ccnc2c1 [Compound 175] | > 70 | > 70 | > 70 | –
CSc1nc(N)cc(Oc2ccc(-c3nnc(Nc4ccc(C#N)cc4)[nH]3)cc2)n1 [Compound 127] | > 70 | > 70 | 50 to 70 | –
